Among the data in patent US12077503B2, “Substituted cyclic amides and their use as herbicides” (FMC CORPORATION, priority 2015, dated 2024) are pest or weed control, Corn plant response rating (crop injury, 0 = no effect, 100 = complete kill) and plant injury values, retold here.

Assay type in all cases: in vivo
Assay [1] concerns ryegrass, Italian (Italian ryegrass, Lolium multiflorum). In words: Test A preemergence. The conditions noted are these: Lolium multiflorum, pre-emergence, 240 h; for pest or weed control at 125 g/ha: 125 g ai/ha, preemergence, visual rating after approx. 10 d, 0 to 100 scale where 0 is no effect and 100 is complete control; for pest or weed control at 125 g/ha / pest or weed control at 31 g/ha: read-out: Plant response rating, Ryegrass, Italian; for pest or weed control at 31 g/ha: 31 g ai/ha, 0 to 100 scale (0 no effect, 100 complete control). In a few lines: (§1)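 Seeds sprayed preemergence with a directed soil spray, or plants at 2 to 10 cm height and one- to two-leaf stage sprayed postemergence, with test chemicals in a non-phytotoxic solvent mixture containing surfactant, in loam soil–sand blend. Injury rated visually against untreated controls after about 10 d in greenhouse, 0 (no effect) to 100 (complete control).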

Assay [2] has as its system Galium (catchweed bedstraw, Galium aparine). In words: Test A postemergence. The conditions noted are these: Galium, post-emergence, 240 h, read-out: Plant response rating, Galium; for pest or weed control at 125 g/ha: 125 g ai/ha, postemergence, visual injury after approximately 10 d, 0 to 100 scale (0 no effect, 100 complete control); for pest or weed control at 31 g/ha: Postemergence, 31 g ai/ha, visual injury after approx. 10 d, 0 to 100 scale, 0 no effect, 100 complete control. An outline of the steps:
as §1

Assay [3] relates to Kochia (Kochia scoparia). In words: Test A postemergence. The conditions noted are these: Bassia scoparia, post-emergence, 240 h, read-out: Plant response rating, Kochia; for pest or weed control at 125 g/ha: 125 g ai/ha, postemergence, visual injury after approximately 10 d, 0 to 100 scale (0 no effect, 100 complete control); for pest or weed control at 31 g/ha: Postemergence, 31 g ai/ha, visual injury after approx. 10 d, 0 to 100 scale, 0 no effect, 100 complete control. In a few lines: as §1

The test system of assay [4] is barnyardgrass (Echinochloa crus-galli). Put plainly: Test A postemergence. The settings on record: Echinochloa crus-galli, post-emergence, 240 h, read-out: Plant response rating, Barnyardgrass; for pest or weed control at 125 g/ha: 125 g ai/ha, postemergence, visual injury after approximately 10 d, 0 to 100 scale (0 no effect, 100 complete control); for pest or weed control at 31 g/ha: Postemergence, 31 g ai/ha, visual injury after approx. 10 d, 0 to 100 scale, 0 no effect, 100 complete control. In a few lines:
as §1

Assay [5] relates to blackgrass (Alopecurus myosuroides). In words: Test A postemergence. The conditions noted are these: Alopecurus myosuroides, post-emergence, 240 h, read-out: Plant response rating, Blackgrass; for pest or weed control at 125 g/ha: 125 g ai/ha, postemergence, visual injury after approximately 10 d, 0 to 100 scale (0 no effect, 100 complete control); for pest or weed control at 31 g/ha: Postemergence, 31 g ai/ha, visual injury after approx. 10 d, 0 to 100 scale, 0 no effect, 100 complete control. An outline of the steps:
as §1

Assay [6] deals with corn (Zea mays). Put plainly: Test A postemergence. The conditions noted are these: Zea mays, post-emergence, 240 h; for Corn plant response rating (crop injury, 0 = no effect, 100 = complete kill) at 125 g/ha: 125 g ai/ha, postemergence, visual injury after approximately 10 d, 0 to 100 scale (0 no effect, 100 complete control); for Corn plant response rating (crop injury, 0 = no effect, 100 = complete kill) at 31 g/ha: Postemergence, 31 g ai/ha, visual injury after approx. 10 d, 0 to 100 scale, 100 complete control. In a few lines: as §1

For assay [7], the system named is giant foxtail (Setaria faberii). In words: Test A postemergence. The conditions noted are these: Setaria faberi, post-emergence, 240 h, read-out: Plant response rating, Foxtail, Giant; for pest or weed control at 125 g/ha: 125 g ai/ha, postemergence, visual injury after approximately 10 d, 0 to 100 scale (0 no effect, 100 complete control); for pest or weed control at 31 g/ha: Postemergence, 31 g ai/ha, visual injury after approx. 10 d, 0 to 100 scale, 0 no effect, 100 complete control. In a few lines:
as §1

For assay [8], the system named is pigweed (Amaranthus retroflexus). Put plainly: Test A postemergence. The conditions noted are these: Amaranthus retroflexus, post-emergence, 240 h, read-out: Plant response rating, Pigweed; for pest or weed control at 125 g/ha: 125 g ai/ha, postemergence, visual injury after approximately 10 d, 0 to 100 scale (0 no effect, 100 complete control); for pest or weed control at 31 g/ha: Postemergence, 31 g ai/ha, visual injury after approx. 10 d, 0 to 100 scale, 0 no effect, 100 complete control. In a few lines:
as §1

Assay [9] has as its system ragweed (common ragweed, Ambrosia elatior). In words: Test A postemergence. The conditions noted are these: Ambrosia artemisiifolia, post-emergence, 240 h, read-out: Plant response rating, Ragweed; for pest or weed control at 125 g/ha: 125 g ai/ha, postemergence, visual injury after approximately 10 d, 0 to 100 scale (0 no effect, 100 complete control); for pest or weed control at 31 g/ha: Postemergence, 31 g ai/ha, visual injury after approx. 10 d, 0 to 100 scale, 0 no effect, 100 complete control. In a few lines:
as §1

Assay [10] relates to ryegrass, Italian (Italian ryegrass, Lolium multiflorum). In words: Test A postemergence. The settings on record: Lolium multiflorum, post-emergence, 240 h, read-out: Plant response rating, Ryegrass, Italian; for pest or weed control at 125 g/ha: 125 g ai/ha, postemergence, visual injury after approximately 10 d, 0 to 100 scale (0 no effect, 100 complete control); for pest or weed control at 31 g/ha: Postemergence, 31 g ai/ha, visual injury after approx. 10 d, 0 to 100 scale, 0 no effect, 100 complete control. In a few lines:
as §1

Assay [11] has as its system wheat (Triticum aestivum). Put plainly: Test A postemergence. The conditions noted are these: Triticum aestivum, post-emergence, 240 h, read-out: Plant response rating, Wheat; for plant injury at 31 g/ha: Postemergence, 31 g ai/ha, visual injury after approx. 10 d, 0 to 100 scale, 0 no effect, 100 complete control. An outline of the steps: as §1
Assay [12] concerns barnyardgrass (Echinochloa crus-galli). Put plainly: Test B flooded paddy test. The conditions noted are these: Echinochloa crus-galli, Flood, 250 g ai/ha; scale of 0 to 100 where 0 is no effect and 100 is complete control; read-out: Barnyardgrass plant response rating. In a few lines: (§2)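 Evaluation by eye, against controls, occurred 13–15 d post-treatment in a greenhouse, using a 0 (no effect) to 100 (complete control) scale. Application was into the paddy water, 3 cm deep over the soil, on 2-leaf plants.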

Assay [13] concerns ducksalad (Heteranthera limosa). Put plainly: Test B flooded paddy test. The conditions noted are these: Heteranthera limosa, Flood, 250 g ai/ha; scale of 0 to 100 where 0 is no effect and 100 is complete control; read-out: Ducksalad plant response rating. An outline of the steps:
as §2

Assay [14] concerns rice (Oryra sativa). Put plainly: Test B flooded paddy test. The settings on record: Oryza sativa, Flood, 250 g ai/ha; scale of 0 to 100 where 0 is no effect and 100 is complete control; read-out: Rice plant response rating. An outline of the steps: as §2
The subject of assay [15] is sedge, umbrella (small-flower umbrella sedge, Cyperus difformis). Put plainly: Test B flooded paddy test. The settings on record: Cyperus difformis, Flood, 250 g ai/ha; scale of 0 to 100 where 0 is no effect and 100 is complete control; read-out: Sedge, Umbrella plant response rating. An outline of the steps: as §2

Consider `O=C1NC[C@H](c2ccc3c(c2)CCO3)[C@H]1C(=O)Nc1cccc(F)c1F` [Compound 785], for which the pest or weed control at 125 g/ha in [1] was 0%; in assay [2], 50%; in assay [3] it was 0%; in [4] it was 90%; in assay [5], 20%; in assay [7], 70%. Also, the pest or weed control at 125 g/ha turned out to be 0% in [8], 0% in [9] and 30% in [10]. Also, the pest or weed control at 500 g/ha in [1] (500 g ai/ha, Preemergence, visual injury vs untreated controls after approximately 10 d, read-out: Ryegrass, Italian plant response rating (0 to 100 scale where 0 is no effect and 100 is complete control)) amounted to 40%. Besides, the Corn plant response rating (crop injury, 0 = no effect, 100 = complete kill) at 125 g/ha in assay [6] turned out to be 0%. Besides, the plant injury at 125 g/ha in assay [11] (125 g ai/ha, postemergence, visual injury after approximately 10 d, 0 to 100 scale (0 no effect, 100 complete control)) stood at 0%. For the same compound, the pest or weed control at 250 g/ha in assay [12] was 40%; in assay [13] it was 90%; in assay [14] it was 0%; in [15], 0%.

For the compound `C/C=C/C1CNC(=O)C1C(=O)Nc1ccccc1F` (stereo not drawn) [Compound 792], the pest or weed control at 125 g/ha in assay [1], in assay [2], in [3], in assay [4], in assay [5] and in [7] was 0% each time. Moreover, the pest or weed control at 125 g/ha in [8], in assay [9] and in [10] was 0% each time. The pest or weed control at 31 g/ha in assay [1] (Preemergence), in assay [2], in assay [3], in [4], in assay [5] and in [7] was 0% each time. Also, the pest or weed control at 31 g/ha in assay [8], in [9] and in assay [10] was 0% each time. In assay [6], this compound returned a Corn plant response rating (crop injury, 0 = no effect, 100 = complete kill) at 125 g/ha of 0%. The compound further displayed a Corn plant response rating (crop injury, 0 = no effect, 100 = complete kill) at 31 g/ha in assay [6] of 0%. Moreover, the plant injury at 31 g/ha in [11] turned out to be 0%. Also, the pest or weed control at 250 g/ha in assay [12], in assay [13], in [14] and in assay [15] was 0% in each case.

Take `O=C1NCC[C@H](c2ccc(Cl)cc2)[C@H]1C(=O)Nc1cccc(F)c1F` [Compound 795]: the pest or weed control at 125 g/ha amounted to 0% in assay [1]; 0% in assay [2]; 0% in assay [3]; 70% in assay [4]; 0% in assay [5]; 50% in assay [7]. For the same compound, the pest or weed control at 125 g/ha in [8], in assay [9] and in [10] was 0% each time. For the same compound, the pest or weed control at 31 g/ha in [1] (Preemergence) is 0%; in assay [2] it was 0%; in assay [3], 0%; in assay [4], 20%; in [5], 0%; in assay [7], 0%. The pest or weed control at 31 g/ha in [8], in assay [9] and in assay [10] was 0% each time. The Corn plant response rating (crop injury, 0 = no effect, 100 = complete kill) at 125 g/ha in [6] turned out to be 0%. Besides, in assay [6], the Corn plant response rating (crop injury, 0 = no effect, 100 = complete kill) at 31 g/ha was 0%. Further, the plant injury at 31 g/ha in assay [11] was found to be 0%. In addition, the pest or weed control at 250 g/ha in [12] was determined as 0%; in assay [13], 70%; in [14], 0%; in assay [15], 0%.
